Reference: patent US5030647A, “Anti-inflammatory thienylbenzylamine compounds” (Boehringer Ingelheim Pharmaceuticals, Inc., priority 1990, dated 1991)
Counter-ions that a name gives are not always drawn. Like-named read-outs stand apart in the source and are kept apart here.

System: paw swelling
Assay: Reverse passive Arthus reaction, inhibition of paw swelling after oral dosing
Format: in vivo
Details: rats; for inhibition in vivo at 30 mg/kg / inhibition in vivo at 10 mg/kg / inhibition in vivo at 100 mg/kg: Rattus norvegicus, po; for inhibition in vivo at 10 mg/kg: 10 mg/kg oral; for inhibition in vivo at 100 mg/kg: 100 mg/kg oral
Method: The reverse passive Arthus reaction is initiated by the interaction of antigen and antibody resulting in the formation of a precipitating immune complex, followed by fixation of complement, accumulation of leukocytes, edema and hemorrhage. The immunopathology of rheumatoid arthritis involves many of the parameters found in this reaction. Test groups (5 rats per group) are dosed orally with compounds one hour prior to the sub-plantar injection into the right hind paw of rabbit anti-ovalbumin antibody (50 μg/0.1 ml). Immediately afterwards, ovalbumin (Sigma, #5503) (5 mg/0.2 ml) is injected i.v. via the tail vein. The right hind paw volume is measured at hourly intervals, from one to four hours after the injection of the immune reactants. The change in paw volume for each animal is calculated by subtracting zero hour paw volume (before injection) from the paw volume at the time of measurement. The mean of these values is calculated for each group. Results are expressed in Table I below as percent inhibition of paw swelling compared to untreated controls.

[1] = 2 h, 30 mg/kg oral, 2 hours, read-out: % INHIBITION (of paw swelling) HOUR 2
[2] = 3 h, 30 mg/kg oral, 3 hours, read-out: % INHIBITION (of paw swelling) HOUR 3
[3] = 4 h, 30 mg/kg oral, 4 hours, read-out: % INHIBITION (of paw swelling) HOUR 4
[4] = 2 h, 2 hours, read-out: % INHIBITION (of paw swelling) HOUR 2
[5] = 3 h, 3 hours, read-out: % INHIBITION (of paw swelling) HOUR 3
[6] = 4 h, 4 hours, read-out: % INHIBITION (of paw swelling) HOUR 4

Row | SMILES | inhibition in vivo at 30 mg/kg [1] [%] | inhibition in vivo at 30 mg/kg [2] [%] | inhibition in vivo at 30 mg/kg [3] [%] | also measured
1 | CN(C)Cc1ccccc1C(O)c1cc(Br)cs1 (centres unmarked) [Compound 18, 4-bromo-2-[(2-dimethylaminomethylphenyl)hydroxymethyl]thiophene] | 35 | 37 | 40 | –
2 | CN(C)Cc1ccccc1C(O)c1ccc(Cl)s1 (centres unmarked) [Compound 1, 5-chloro-2-[(2-dimethylaminomethylphenyl)hydroxymethyl]thiophene] | – | – | – | inhibition in vivo at 10 mg/kg [4]: 54%; inhibition in vivo at 100 mg/kg [4]: 87.5%; inhibition in vivo at 10 mg/kg [5]: 23.1%; inhibition in vivo at 100 mg/kg [5]: 71.5%; inhibition in vivo at 10 mg/kg [6]: 17.1%; inhibition in vivo at 100 mg/kg [6]: 67.8%
3 | CN(C)Cc1ccccc1C(O)c1ccc(Cl)s1.O=C(O)/C=C/C(=O)O (centres unmarked) [Compound 16, 5-chloro-2-[-(2-dimethylaminomethylphenyl)-1-hydroxymethyl]thiophene monofumarate] | – | – | – | % INHIBITION (of paw swelling) HOUR 2 (30 mg/kg oral, 2 hours): 17%; % INHIBITION (of paw swelling) HOUR 3 (30 mg/kg oral, 3 hours): 11%; % INHIBITION (of paw swelling) HOUR 4 (30 mg/kg oral, 4 hours): 0%
4 | CN(C)Cc1ccc(C(O)c2ccccc2CN(C)C)s1 (centres unmarked) [Compound 10, 5-N,N-dimethylaminomethyl-2-[2-(N,N-dimethylaminomethylphenyl)hydroxymethyl]thiophene] | 55.6 | 21.6 | 19.4 | –
5 | CN(C)Cc1ccccc1C(=O)c1ccsc1 [Compound 37, 3-[2-(2-N,N-dimethylaminomethylphenyl)carbonyl]thiophene] | 0 | 0 | 0 | –
6 | CC(=O)c1ccc(C(O)c2ccccc2CN(C)C)s1 (centres unmarked) [Compound 20, 5-acetyl-2-[(2-dimethylaminomethylphenyl)hydroxymethyl]thiophene] | 12 | 15 | 2 | –
7 | CN(C)Cc1ccccc1C(C)(O)c1ccc(Br)s1 (centres unmarked) [Compound 34, N,N-dimethyl-2-[1-(5-bromothien-2-yl)-1-hydroxyethyl]benzylamine] | 66 | 49 | 14 | –
8 | CN(C)Cc1ccccc1C(O)c1scc(Br)c1Br (centres unmarked) [Compound 27, 3,4-dibromo-2-[(2-N,N-dimethylaminomethylphenyl)hydroxymethyl]thiophene hydrochloride] | 39 | 25 | 10 | –
9 | CN(C)Cc1ccccc1C(O)c1csc(I)c1 (centres unmarked) [Compound 28, 5-iodo-3-[(2-N,N-dimethylaminomethylphenyl)hydroxymethyl]thiophene hydrochloride] | 21 | 0 | 13 | –
10 | CN(C)Cc1ccccc1C(O)c1ccc(Br)s1 (centres unmarked) [Compound 15] | 63.1 | 47.1 | 26.7 | –
11 | CN(C)Cc1ccccc1C(O)c1csc(Cl)c1Cl (centres unmarked) [Compound 30, 4,5-dichloro-3-[(2-N,N-dimethylaminomethylphenyl)hydroxymethyl]thiophene hydrochloride] | 47 | 36 | – | –
12 | CN(C)Cc1ccccc1C(O)c1cscc1Br (centres unmarked) [Compound 26, 4-bromo-3-[(2-N,N-dimethylaminomethylphenyl)hydroxymethyl]thiophene hydrochloride] | 42 | 25 | 6 | –
13 | CN(C)Cc1ccccc1C(O)c1sc(Cl)cc1Cl (centres unmarked) [Compound 32, 3,5-dichloro-2-[(N,N-dimethylaminomethylphenyl)hydroxymethyl]thiophene hydrochloride] | 62 | 47 | 12 | –
14 | CC(c1ccccc1C(O)c1ccc(Cl)s1)N(C)C (centres unmarked) [Compound 36, 5-chloro-2-[2-(1-N,N-dimethylaminoethylphenyl)hydroxymethyl]thiophene hydrochloride] | 52 | 15 | 3 | –
15 | CC(c1ccccc1C(O)c1csc(Br)c1)N(C)C (centres unmarked) [Compound 35, 5-bromo-3-[2-(1-N,N-dimethylaminoethylphenyl)hydroxymethyl]thiophene] | 58 | 48 | 9 | –
16 | CN(C)Cc1ccccc1C(O)c1sccc1Br (centres unmarked) [Compound 17, 3-bromo-2-[(2-dimethylaminomethylphenyl)hydroxymethyl]thiophene monofumarate] | 49 | 5 | 0 | –
17 | CN(C)Cc1ccccc1C(O)c1c(Cl)sc(Cl)c1Cl (centres unmarked) [Compound 31, 2,4,5-Trichloro-3-[(2-N,N-dimethylaminomethylphenyl)hydroxymethyl]thiophene hydrochloride] | 44 | 32 | 0 | –
18 | Cc1cc(Cl)sc1C(O)c1ccccc1CN(C)C (centres unmarked) [Compound 13, 5-chloro-2-[(dimethylaminomethylphenyl)hydroxymethyl]-3-methylthiophene] | 66.8 | 24.1 | 7.3 | inhibition in vivo at 100 mg/kg [4]: 51.7%; inhibition in vivo at 100 mg/kg [5]: 28.6%; inhibition in vivo at 100 mg/kg [6]: 3.3%
19 | CN(C)Cc1ccccc1C(O)c1cc(I)sc1I (centres unmarked) [Compound 29, 2,5-diiodo-3-[(2-N,N-dimethylaminomethylphenyl)hydroxymethyl]thiophene hydrochloride] | 50 | 29 | 0 | –
20 | CN(C)Cc1ccccc1C(O)c1ccc(C2(C)OCCO2)s1 (centres unmarked) [Compound 19, 2-[(2-dimethylaminomethylphenyl)hydroxymethyl]-5-(1,1-ethylenedioxyethyl) thiophene] | 40 | 37 | 11 | –
21 | CN(C)Cc1ccccc1C(O)c1cc(Cl)sc1Cl (centres unmarked) [Compound 25, 2,5-dichloro-3[(2-N,N-dimethylaminomethylphenyl)hydroxymethyl]thiophene hydrochloride] | 68 | 64 | 38 | –
